Measurements as given in publication PMC5045922, “In vivo pharmacological activity and biodistribution of S-nitrosophytochelatins after intravenous and intranasal administration in mice” (Nitric Oxide, 2016).
Like-named read-outs stand apart in the source and are kept apart here.

Tests used:
[1] = set-up: method as in PMID 26686469; settings: after equilibration of the NO moiety amongst plasma thiols via S-transnitrosylation; cited from earlier work
[2] = cited from earlier work
[3] = system: CD-1 mice; assay type: in vivo; settings: for Tmax (time at which the maximum response occurred): in vivo, iv
Procedure: In vivo blood pressure was monitored in anaesthetized animals as previously described. A total of 12 wild type male mice were used (n = 3/group) where the groups represented the vehicle (0.9% saline) control, GSNO, SNOPC-2 and SNOPC-6 treatments, respectively. Mean arterial pressure was recorded in anaesthetized mice (2% isoflurane in air) on a homeothermically controlled heating blanket (Harvard Instruments, Edenbridge, UK). A 1.2F microtip pressure catheter (Scisense, Transonic Systems, Ithaca, NY, USA) was inserted into the right carotid artery and basal arterial pressure was recorded for 5 min. Test drug solutions (50 μL containing 500 μmol/L NO ≈ 1 μmol NO/kg body weight) or control (saline) solution were directly injected into the jugular vein using a 30 gauge needle inserted through the underlying muscle. Arterial blood pressure was recorded continuously for a further 5 min following drug administration using a PowerLab data acquisition system and Chart 7 software (ADInstuments, Oxford, UK).

[4] = set-up: species or system mice; settings: CD-1, mouse, in vivo
Procedure: A total of 48 mice were used (n = 3/group/time point) where the groups represented vehicle (0.9%saline) control, GSNO, SNOPC-2 and SNOPC-6 treatments (n = 3 per group), respectively. A time course study (0, 1, 5 and 15 min) was carried out to characterize the NOx biodistribution after i.n. administration of compounds. Prior to drug administration, mice were anaesthetized by inhaling 2% isoflurane in air via a nose cone. A single volume (20 μL) of test solution in saline (containing 1.25 mmol/L NO ≈ 1 μmol NO/kg body weight) or control (saline) solution was then administered drop wise into the nasal cavity using a micropipette after removing the mouse momentarily from the anaesthetic mask cone and holding it in an upright position. At the appropriate time point animals were exsanguinated by terminal bleed under anaesthesia. Blood and organ samples were collected and processed as described in section 2.4.
Prior to quantification, tissue samples were thawed, weighed and homogenized at 100 mg tissue/mL in phosphate buffered saline (PBS; pH 7.4) using a Silverson model L4RT laboratory homogenizer. Homogenates were centrifuged at 13,000 g for 20 min at 4 °C to remove tissue debris. Whole blood samples were fractionated into plasma (serum + platelets) and blood cells (red and white blood cells) by centrifugation at 1200 g. Cellular blood components were lysed with lysis buffer (5 mmol/L Na o-vanadate, 10 mg/mL benzamidine, 1 mmol/L phenylmethylsulfonyl fluoride (PMSF), 10 mmol/L Tris HCl, 5 mmol/L ethylenediamine tetraacetic acid (EDTA), 50 mmol/L NaCl pH 7.4 and 3.5 mmol/L SDS) at a volume ratio of 1:5 cells: lysis buffer. These samples were centrifuged at 13,000 g for 20 min at 4 °C. Protein content of each sample was quantified using the Bradford assay.
Quantification of total NOx was performed according to a method described by Verdon et al.. Briefly, samples were de-proteinated by mixing the sample with 0.3 mol/L NaOH and aqueous 0.27 mol/L ZnSO4 at a volume ratio of 1:1:2. NOx was determined in 50 μL de-proteinated sample in the form of nitrite using the colorimetric Griess method, [28]. The amount of nitrite in each sample was calculated from a linear calibration curve of known nitrite concentrations (linear range: 1–100 μmol/L) and normalized for total amount of protein (mg), quantified using the Bradford assay. The final concentration, expressed as μM nitrite/mg protein, represents the total NOx in the system. Any remaining nitrite in the infusate (drug solution administered) was not measured as we were more interested in in vivo changes in NOx levels in untreated versus different treated groups at different time points measured but we have previously characterized this.

[5] = CD-1, mouse, in vivo, iv
[6] = 10 μmol/L, human plasma and whole blood ex vivo
[7] = inhaled or intranasal, 1 umol/kg

For S-nitrosated cysteine [CySNO], the half-life [1] is listed as “about 5 min”, the “decomposition within the first 5 min” value [2, 6] is listed as ~85% and the “time to full decomposition” value [2, 6] is listed as ≤ 15 min. The Half-life of decomposition ([2]; human) was “approximately 50 s”.

With N[C@@H](CCC(=O)N[C@@H](CSN=O)C(=O)N[C@@H](CCC(=O)N[C@@H](CSN=O)C(=O)NCC(=O)O)C(=O)O)C(=O)O [SNOPC-2] the “Tmax (time at which the maximum response occurred)” value ([3]; male, CD-1, mouse) was 0.083 min, the “NOx tmax Heart” value [4] was 5 min and the “NOx tmax Liver” value [4] was 5 min. The “NOx tmax Lung” value [4] was 1 min, the “NOx tmax Plasma” value [4] was 5 min and the “NOx tmax Heart” value [5] was 1 min. For the same molecule, the “NOx tmax Liver” value [5] was 3 min, the “NOx tmax Lung” value [5] was 1 min and the “NOx tmax Plasma” value [5] was 1 min.

In the case of N[C@@H](CCC(=O)N[C@@H](CSN=O)C(=O)NCC(=O)O)C(=O)O [GSNO, S-nitrosoglutathione], the “reduction in blood pressure” value ([3]; i.v., 1 μmol NO/kg body weight, CD-1 mice, compared to saline) was 30–35%, the “Tmax (time at which the maximum response occurred)” value ([3]; mouse) was 0.083 min and the “NOx tmax Heart” value [4, 7] was 5 min. For the same molecule, the “NOx tmax Liver” value [4, 7] was 5 min, the “NOx tmax Lung” value [4, 7] was 1 min and the “NOx tmax Plasma” value [4, 7] was 5 min. The “NOx tmax Heart” value ([5]; 1 umol/kg) was 3 min, the “NOx tmax Liver” value ([5]; 1 umol/kg) was 5 min and the “NOx tmax Lung” value ([5]; 1 umol/kg) was 1 min. For the same molecule, the “NOx tmax Plasma” value ([5]; 1 umol/kg) was 1 min, the half-life [1] was “about 5 min” and the Half-life of decomposition [2, 6] was ~2 min. The “decomposition within the first 5 min” value [2, 6] was ~85% and the “time to full decomposition” value [2, 6] was ≤ 15 min.

For N[C@@H](CCC(=O)N[C@@H](CSN=O)C(=O)N[C@@H](CCC(=O)N[C@@H](CSN=O)C(=O)N[C@@H](CCC(=O)N[C@@H](CSN=O)C(=O)N[C@@H](CCC(=O)N[C@@H](CSN=O)C(=O)N[C@@H](CCC(=O)N[C@@H](CSN=O)C(=O)N[C@@H](CCC(=O)N[C@@H](CSN=O)C(=O)NCC(=O)O)C(=O)O)C(=O)O)C(=O)O)C(=O)O)C(=O)O)C(=O)O [SNOPC-6], the “Tmax (time at which the maximum response occurred)” value ([3]; male, CD-1, mouse) was 0.083 min, the “NOx tmax Heart” value [4] was 5 min and the “NOx tmax Liver” value [4] was 5 min. For the same molecule, the “NOx tmax Lung” value [4] was 1 min, the “NOx tmax Plasma” value [4] was 5 min and the “NOx tmax Heart” value [5] was 1 min. The “NOx tmax Liver” value [5] was 5 min, the “NOx tmax Lung” value [5] was 1 min and the “NOx tmax Plasma” value [5] was 3 min.
